Assay results as given in patent publication US12268725B2, “Composition of BL-8040” (BioLineRx Ltd., priority 2020, dated 2025).
Bridge positions count the residues as written; N and C are the ends. Square brackets hold non-standard residues; d marks the D form. * marks the point of attachment. 2Nal = N[C@@H](Cc1ccc2ccccc2c1)C(=O)O; Benzoyl(4-F) = O=C(c1ccc(F)cc1)*; Cit = NC(=O)NCCC[C@H](N)C(=O)O

System: neutrophil migration to peripheral blood
Test: In vivo neutrophil migration to peripheral blood after injection
Conditions: mice, single subcutaneous dose of 5 mg/kg BL-8040 in 200 μl PBS, bled 2 hours after injection, flow cytometry of mature neutrophils, increase relative to control mice
Method: In some of any of the respective embodiments, promotion of in vivo neutrophil migration to peripheral blood is determined by subcutaneously injecting mice with 5 mg/kg of BL-8040 (SEQ ID NO: 1), reconstituted in 200 μl of PBS, then bleeding the mice 2 hours after injection (e.g., by cardiac puncture into tubes with heparin) and quantifying the number of mature neutrophils in the peripheral blood (e.g., by flow cytometry) relative to control (untreated) mice.
BL-8040 (SEQ ID NO: 1) is an antagonist of the CXCR4 chemokine receptor. The induction of the cellular activity mediated by CXCR4 is responsible for the attachment of white blood cells to the bone marrow stromal cells. Inhibition of the CXCR4 activity (e.g., by BL-8040 (SEQ ID NO: 1)) is therefore expected to induce the detachment of the white blood cells (which include but are not limited to neutrophils) from the bone marrow stroma, and the subsequent migration of the cells to the peripheral blood. […]
Mice were subcutaneously injected with a single dose of 5 mg/kg of BL-8040 (SEQ ID NO: 1), reconstituted in 200 μl of PBS. […] Flow cytometry was used to evaluate the number of mature neutrophils in the peripheral blood, and the increase relative to control mice was calculated.

“Reference Example 1: BL-8040 prepared on Rink amide resin with HOBt/TBTU coupling and iodine cyclization; lacks the RRT 0.87 and 0.72 compounds ({Benzoyl(4-F)}-RR[2Nal]CY[Cit]K[dK]PYR[Cit]CR-NH2; disulfide 4-13 (inferred))” was tested. Which “Fold increase in neutrophil number” value did it give?
Its value is 5.6.
